We go through 6 compounds from US8440830B2, “Tetrahydro-fused pyridines as histone deacetylase inhibitors” (4SC AG, priority 2007, dated 2013).

pEC50, pIC50: −log10 of the molar value. Where two headings read alike, the source gives them in different places.

The subject of experiment [1] is fully transformed malignant cancer cell lines. Put plainly: Anti-proliferative activity, selection of cell lines (Alamar Blue). The experiment is classed as cell-based. Particulars: Homo sapiens, 72 h, mean over cell lines, read-out: Mean IC50 values as calculated for fully malignant cancer cell lines. Here is the method:
(§1) The anti-proliferative activity of the histone deacetylase inhibitory compounds as described herein, is evaluated using the following cell lines: HeLa and HeLa-KB (cervical carcinoma), H460 (non small cell lung cancer), A549 (non-small cell lung cancer), MCF7 (breast carcinoma), MCF10A (normal, non tumorigenic breast epithelial), MDA-MB468 (breast carcinoma), MDA-MB435 (breast carcinoma), MDA-MB231 (breast carcinoma), SKBR-3 (breast carcinoma), SKOV-3 (ovarial carcinoma), A-2780 (ovarial carcinoma), RKO (colon carcinoma), HCT-15 (colon carcinoma), HCT-116 (colon carcinoma), PC3 (prostate carcinoma), BPH1 (benign prostate hyperplasia), AsPC1 (pancreatic carcinoma), Ca127 (tongue carcinoma), A-431 (vulva carcinoma), Hec1A (endometrial carcinoma), Saos-2 (osteosarcoma), U87MG (glioblastoma), WM266-4 (melanoma), K562 (chronic myeloid leukemia), EOL1 (acute hypereosinophilic myeloid leukemia), CCRF-CEM and CCRF-CEM VCR1000 (acute lymphoblastic leukemia sensitive and resistant towards Vincristine). For quantification of cellular proliferation/living cells the Alamar Blue (Resazurin) cell viability assay is applied (O'Brien et al. Eur J Biochem 267, 5421-5426, 2000). In this assay Resazurin is reduced to the fluorescent resorufine by cellular dehydrogenase activity, correlating with viable, proliferating cells. The examples are dissolved as 20 mM solutions in dimethylsulfoxide (DMSO) and subsequently diluted in semi-logarithmic steps. Cell lines are seeded at respective density into 96 well flat bottom plates in a volume of 200 μl per well. 24 h after seeding 1 μl each of the compound dilutions are added into each well of the 96 well plate. Each compound dilution is tested as quadruplicates. Wells containing untreated control cells are filled with 200 μl DMEM medium containing 0.5% v:v DMSO. The cells are then incubated with the compounds for 72 h at 37° C. in a humidified atmosphere containing 5% carbon dioxide. To determine the viability of the cells, 20 μl of a Resazurin solution (Sigma; 90 mg/l) are added. After 4 h incubation at 37° C. the fluorescence is measured at an extinction of λ=544 nm and an emission of λ=590 nm. For the calculation of the cell viability the emission value from untreated cells is set as 100% viability and the emission rates of treated cells are set in relation to the values of untreated cells. Viabilities are expressed as % values. The corresponding IC50 values of the compounds for cytotoxic activity are determined from the concentration-effect curves by means of non-linear regression.
The anti-proliferative activity of compounds from examples 1, 2, 3, 12 and 150 is evaluated by using a broad selection of non-malignant cell lines and fully transformed malignant cancer cell lines.

Experiment [2] deals with RKO colon carcinoma cells with conditional p21^waf1 expression. The experiment can be described thus: Cell cycle dependent cytotoxicity, RKO exop21 cell system. The experiment is classed as cell-based. The note with it: Homo sapiens, 72 h. Here is the method:
as §1
For determination of cell-cycle dependent cytotoxicity, the RKO exop21 cell system is applied (Schmidt et al. Oncogene 19: 2423-2429, 2000). Briefly, RKO cells with/without p21^waf1 expression (2×10^4 cells/well induced, 6×10^3 cells/well not induced) are treated with the compounds for 72 h and metabolic activity quantified as described before. The expression of p21^waf1 was induced by treatment with Pronasterone A, causing a complete proliferation arrest of RKO cells in the G1 and G2 phases of the cell division cycle.

Experiment [3] has as its system histone H3 hyperacetylation in HeLa cervical carcinoma cells. The experiment can be described thus: Cellular histone H3 hyperacetylation assay. The class given is cell-based. The note with it: Homo sapiens, 24 h treatment. The source says: To assess the cellular efficacy of a histone deacetylase inhibitor in vitro, an assay is set up in black clear-bottom 96-well plates and optimized for use on the Cellomics “ArrayScan II” platform for a quantitative calculation of histone acetylation. The protocol uses a polyclonal rabbit antibody, specifically binding to acetylated lysine 1-20 (including K 9 and K14) of human histone H3 on fixed cells with an Alexa Fluor 488 labeled goat anti rabbit-IgG used for counterstaining 5×10^3 HeLa cervical carcinoma cells/well (ATCC CCL-2) in 200 μl Dulbecco's modified Eagle's medium (DMEM) containing 10% fetal calf serum are seeded at day 1 in Packard view plates and incubated for 24 h under standard cell culture conditions. On day 2, 1 μl test compound (200× final concentration) is added and incubation continued for further 24 h. On day 3, the culture medium is discarded and attached cells fixed for 15 min at room temperature by addition of 100 μl fixation buffer (3.7% v:v formaldehyde in phosphate buffered saline/PBS). After discarding the fixation buffer and one wash with blocking solution (1% BSA, 0.3% Tween 20 in PBS), cells are permeabilized at room temperature by addition of 100 μl /well permeabilization buffer (30.8 mM NaCl, 0.54 mM Na2HPO4, 0.31 mM KH2PO4, 0.1% v:v Triton X-100) for 15 min at room temperature. After discarding the permeabilization buffer and washing twice with 100 μl/well blocking solution at room temperature, the 1st antibody (anti-K1-20 histone H3 antibody, Calbiochem No. 382158) in blocking solution (50 μl/well) is added. After incubation for 1 h at room temperature, the wells are washed twice at room temperature with 100 μl/well blocking solution before addition of the 2nd antibody (goat-anti-rabbit Alexa Fluor 488; MoBiTec No. A -11008) in blocking solution (50 μl well). After further incubation for 1 h at room temperature, wells are washed twice with 100 μl/well blocking solution at room temperature. Finally, 100 μl/well PBS are added and image analysis performed on the Cellomics “ArrayScan II” platform. For EC50 determination, the percentage of positive cells showing nuclear fluorescence is determined and EC50 calculation done from concentration-effect curves by means of non-linear regression. For calibration, a positive (reference HDAC inhibitors like SAHA or NVP LBH-589) and a negative control were included.

Experiment [4] has as its system A549 NSCLC cells. The experiment can be described thus: Cellular cytotoxicity assay (Alamar Blue), A549. The class given is cell-based. The note with it: Homo sapiens, 72 h, upper end given as ≧100, read-out: IC50 (μM), cytotoxicity towards A549 NSCLC cells. An outline of the steps:
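Resazurin-to-resorufin fluorescence (ex 544, em 590 nm, after 4 h) gave viability as % of untreated cells following 72 h compound exposure at 37 °C. Compounds were added in semi-logarithmic dilutions 24 h post-seeding, quadruplicate wells; IC50 fitted by non-linear regression of concentration-effect curves.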

Experiment [5] relates to A549 NSCLC cells. Put plainly: Cell cycle analysis by flow cytometry. The class given is cell-based, human. The note with it: A549, 24 h treatment. Here is the method:
A549 NSCLC cells (ATTC CCL-185) are cultivated in DMEM with high glucose (supplemented with 10% FBS) at 5% CO2 and 37° C. in a humidified atmosphere under standard cell culture conditions. 24 h before compound treatment, cells are seeded at 5×10^4 cells/ml (=5×10^5 cells/10 cm cell culture dish) to allow logarithmic proliferation during the experiment. After 24 h, cells were treated with test compound or 0.5 vol % DMSO as a control. After 24 h and 48 h treatment, the culture medium is collected and detached, floating cells are collected by short centrifugation (5 min at 1200 rpm). Attached cells are washed once with 5 ml PBS, detached by treatment with 3 ml trypsin/EDTA solution (short incubation for 3-5 min) and—together with detached, floating cells—transferred into 15 ml Falcon tubes. The cell culture dish is washed with 10 ml DMEM to collect all remaining cells. After centrifugation for 5 min at 1200 rpm at room temperature, the supernatant is discarded and the cell pellet washed twice with 10 ml PBS. The supernatant is discarded, the cells resuspended in 4 ml ice-cold fixation solution (70 vol % ethanol, 30 vol % H2O; stored at −20° C.) and stored at −20° C. overnight. Next, 10 ml PBS (4° C.) is added to the cells, before centrifugation for 5 min at 1200 rpm (4° C.). The supernatant is discarded, the cell pellet washed once with 10 ml PBS (4° C.) and the cell pellet finally resuspended in about 1 ml staining solution (10 μg/ml RNAse A, 10 μg/ml propidiumiodide in PBS, final volume dependent on cell number). After incubation for 30 min at room temperature in the dark, cells are stored on ice and analyzed using the Becton Dickinson FACS Canto device. Analysis is done at an excitation of λ=488 nm with emission set as λ=600 nm.
Data analysis: Cells are analyzed according to size, granularity and propidiumiodide intensity. Size and granularity of cells are determined by measurement of forward scatter (FSC) and side scatter (SSC) of the λ=488 nm excitation light, respectively. To discriminate cells with 4N DNA content from cell doublets (two attached cells with 2N DNA content each), the ratio between the area under the propidiumiodide peak (PE-A) and the height of the propidiumiodide peak (PE-H) for each cell is determined. Cell doublets need more time to pass through the laser beam, which causes a broadening of the propidiumiodide peak and an increase of the ratio PE-A/PE-H. Using this analysis, cells in 4N and cell doublets appear as distinct clouds in a scatter plot and are excluded from the analysis. Thus, the area under the propidiumiodide peak at λ=600 nm (PE-A) is a measure for the DNA content of the cells. PE-A is blotted against the measured cell number in a histogram in order to determine the percentage of analyzed cells in an individual stage of the cell cycle.
Background: Flow cytometry measures light scatter and fluorescence of single cells or particles in a stream.

In experiment [6] the target is T1, HDAC11 (Homo sapiens, UniProt Q96DB2).
T1 sequence (Q96DB2 1-347): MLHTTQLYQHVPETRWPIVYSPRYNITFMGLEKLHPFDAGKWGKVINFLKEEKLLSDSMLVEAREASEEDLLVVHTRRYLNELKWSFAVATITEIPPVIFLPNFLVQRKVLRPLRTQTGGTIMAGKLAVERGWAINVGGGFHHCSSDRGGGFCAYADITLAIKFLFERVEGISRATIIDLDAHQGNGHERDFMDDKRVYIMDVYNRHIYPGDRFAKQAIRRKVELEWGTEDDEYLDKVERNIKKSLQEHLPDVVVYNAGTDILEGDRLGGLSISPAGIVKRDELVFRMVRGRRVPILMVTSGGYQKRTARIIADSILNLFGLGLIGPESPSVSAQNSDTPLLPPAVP
Particulars: Kalita et al. 2005; one range for HDAC1, 2, 3 and 11; cited from earlier work.

Experiment [7] concerns HDACs 4 to 8. Particulars: read-out: IC50 HDACs 4 to 8; Kalita et al. 2005; cited from earlier work.
The subject of experiment [8] is acute human T-lymphoblastic leukemia cell line CCRF-CEM. The note with it: about 10.000 unique accession numbers, Peart et al. 2005; cited from earlier work.
[9] abbreviates: read-out: EC50, induction of histone H3 hyperacetylation.
[10] abbreviates: read-out: −lg EC50, induction of histone H3 hyperacetylation.

With `Cc1ccc(S(=O)(=O)N2CCc3nc(C(=O)Nc4ccccc4N)sc3C2)cc1` [Example 150, N-(2-aminophenyl)-5-[(4-methylphenyl)sulfonyl]-4,5,6,7-tetrahydro[1,3]-thiazolo[5,4-c]pyridine-2-carboxamide], the pIC50 in experiment [1] is 5.27 to 5.62; in experiment [2] (RKO arrested, p21^waf1 expressed, read-out: RKO arrested (p21^waf1 expressed) IC50), 5.31 to 5.96; in experiment [2] (RKO proliferating, p21^waf1 not induced, read-out: RKO proliferating IC50), 5.40 to 5.96. Also, the values for the pEC50 in experiment [3] (setting [9]) and in experiment [3] (setting [10]) were 4.82 to 6.82 and 4.80 to 6.60, respectively. Further, the IC50 in experiment [4] was at least 0.2 µM.

For the compound `COc1ccc(S(=O)(=O)N2CCc3nc(C(=O)Nc4ccccc4N)sc3C2)cc1` [Example 153, N-(2-aminophenyl)-5-[(4-methoxyphenyl)sulfonyl]-4,5,6,7-tetrahydro[1,3]thiazolo[5,4-c]pyridine-2-carboxamide], the results for the pEC50 in experiment [3] (setting [9]) and in experiment [3] (setting [10]) were 4.82 to 6.82 and 4.80 to 6.60, respectively. Besides, in experiment [4], the concentration for half-maximal inhibition (IC50) was at least 0.2 µM. In addition, the “concentration inducing arrest in G1, depletion of cells in the S-phase and reduction of cells in the G2/M-phase” value in experiment [5] is recorded as “around 3 μM”.

Regarding `Cc1ccc(OC(=O)N2CCc3nc(C(=O)Nc4ccccc4N)sc3C2)cc1` [Example 182, 4-methylphenyl 2-[(2-aminophenyl)carbamoyl]-6,7-dihydro[1,3]thiazolo[5,4-c]pyridine-5(4H)-carboxylate], the results for the negative logarithm of the EC50 (pEC50) in experiment [3] (setting [9]) and in experiment [3] (setting [10]) were 4.82 to 6.82 and 4.80 to 6.60, respectively. Besides, in experiment [4], the 50% inhibitory concentration (IC50) was at least 0.2 µM. For the same compound, the “concentration inducing arrest in G1, depletion of cells in the S-phase and reduction of cells in the G2/M-phase” value in experiment [5] is on record as “around 3 μM”.

As to `Nc1ccccc1NC(=O)c1nc2c(s1)CN(C(=O)OCc1cccnc1)CC2` [Example 189, Pyridin-3-ylmethyl 2-[(2-aminophenyl)carbamoyl]-6,7-dihydro[1,3]thiazolo[5,4-c]pyridine-5(4H)-carboxylate], the negative-log EC50 (pEC50) was 4.82 to 6.82 in experiment [3] (setting [9]) and 4.80 to 6.60 in experiment [3] (setting [10]). Besides, the IC50 in experiment [4] is at least 0.2 µM. Also, the “concentration inducing arrest in G1, depletion of cells in the S-phase and reduction of cells in the G2/M-phase” value in experiment [5] is “around 3 μM”.

Turning to `Nc1ccccc1NC(=O)c1ccc(CNc2nccc(-c3cccnc3)n2)cc1` [MGCD0103], the values for the pIC50 in experiment [6] and in experiment [7] were 5.70 to 7.00 and below 4.70, respectively.

In the case of `O=C(CCCCCCC(=O)Nc1ccccc1)NO` [SAHA, suberoylanilide hydroxamic acid], the “share of analyzed genes whose expression was changed” value in experiment [8] is 22.1%.

For orientation: pIC50 means the IC50 on a negative log10 scale, so that one unit is a factor of ten. What is called pEC50 is the EC50 on a negative log10 scale, so that one unit is a factor of ten. A word on the IC50: it is the point on the concentration scale where inhibition reaches its midpoint.
